Measurements: PMC5218480 (PLoS ONE, 2017)

Tested on: MV-4-11 cells
Experiment: Gene expression microarray analysis (Affymetrix PrimeView) and GSEA
Format: cell-based, human
Parameters: RFU PODN (11730768_x_at) / Fold change /veh PODN (11730768_x_at) / RFU LINC00158 (11744669_a_at) / Fold change /veh LINC00158 (11744669_a_at) / RFU DUSP10 (11751237_a_at) / Fold change /veh DUSP10 (11751237_a_at) / RFU ID3 (11757404_x_at) / Fold change /veh ID3 (11757404_x_at) / RFU PLEKHG5 (11737974_s_at) / Fold change /veh PLEKHG5 (11737974_s_at) / RFU LRRC4B (11730491_at) / Fold change /veh LRRC4B (11730491_at) / RFU GIMAP4 (11747438_a_at) / Fold change /veh GIMAP4 (11747438_a_at) / RFU KRT8 (11758183_x_at) / Fold change /veh KRT8 (11758183_x_at) / RFU CNN1 (11734310_a_at) / Fold change /veh CNN1 (11734310_a_at) / RFU VPS37D (11726825_at) / Fold change /veh VPS37D (11726825_at) / RFU C10orf10 (11716522_x_at) / Fold change /veh C10orf10 (11716522_x_at) / RFU KIR2DL2 /// KIR2DL4 /// KIR2DL5A /// KIR2DL5B /// KIR2DS1 /// KIR2DS2 /// KIR2DS3 /// KIR2DS4 /// KIR3DL3 /// KIR3DL3 /// KIR3DS1 (11738374_at) / Fold change /veh KIR2DL2 /// KIR2DL4 /// KIR2DL5A /// KIR2DL5B /// KIR2DS1 /// KIR2DS2 /// KIR2DS3 /// KIR2DS4 /// KIR3DL3 /// KIR3DL3 /// KIR3DS1 (11738374_at) / RFU C1QL1 (11718748_at) / Fold change /veh C1QL1 (11718748_at) / RFU TMPRSS4 (11747572_a_at) / Fold change /veh TMPRSS4 (11747572_a_at) / RFU HAMP (11756126_x_at) / Fold change /veh HAMP (11756126_x_at) / RFU RNFT2 (11725882_a_at) / Fold change /veh RNFT2 (11725882_a_at) / RFU NR4A2 (11747474_a_at) / Fold change /veh NR4A2 (11747474_a_at) / RFU ABCC12 (11746883_a_at) / Fold change /veh ABCC12 (11746883_a_at) / RFU TMEM136 (11760407_x_at) / Fold change /veh TMEM136 (11760407_x_at) / RFU CLDN22 /// WWC2 (11732394_at) / Fold change /veh CLDN22 /// WWC2 (11732394_at) / RFU HLA-DPB1 (11760878_x_at) / Fold change /veh HLA-DPB1 (11760878_x_at) / RFU SPINT1 (11716480_a_at) / Fold change /veh SPINT1 (11716480_a_at) / RFU GAP43 (11754022_s_at) / Fold change /veh GAP43 (11754022_s_at) / RFU A4GNT (11735810_at) / Fold change /veh A4GNT (11735810_at) / RFU PRB3 (11715151_x_at) / Fold change /veh PRB3 (11715151_x_at) / RFU TUBB4B (11761932_at) / Fold change /veh TUBB4B (11761932_at) / RFU CAPN14 (11732068_a_at) / Fold change /veh CAPN14 (11732068_a_at) / RFU TMCC2 (11721928_a_at) / Fold change /veh TMCC2 (11721928_a_at) / RFU IRGQ (11745062_a_at) / Fold change /veh IRGQ (11745062_a_at) / RFU FAM174B (11720279_a_at) / Fold change /veh FAM174B (11720279_a_at) / RFU TMPRSS4 (11748680_a_at) / Fold change /veh TMPRSS4 (11748680_a_at) / RFU FAM212B (11763350_a_at) / Fold change /veh FAM212B (11763350_a_at) / RFU PLEKHG5 (11743358_a_at) / Fold change /veh PLEKHG5 (11743358_a_at) / RFU ZSCAN30 (11745921_a_at) / Fold change /veh ZSCAN30 (11745921_a_at) / RFU CMKLR1 (11741424_a_at) / Fold change /veh CMKLR1 (11741424_a_at) / RFU LOC101060620 /// MAPK8IP1 (11723275_at) / Fold change /veh LOC101060620 /// MAPK8IP1 (11723275_at) / RFU SPTSSB (11747773_x_at) / Fold change /veh SPTSSB (11747773_x_at) / RFU PRSS12 (11739890_at) / Fold change /veh PRSS12 (11739890_at) / RFU BIN1 (11741810_x_at) / Fold change /veh BIN1 (11741810_x_at) / RFU WNT11 (11732464_a_at) / Fold change /veh WNT11 (11732464_a_at) / RFU C10orf10 (11716521_a_at) / Fold change /veh C10orf10 (11716521_a_at) / RFU C5orf56 (11738089_at) / Fold change /veh C5orf56 (11738089_at) / RFU CYB561 (11721691_x_at) / Fold change /veh CYB561 (11721691_x_at) / RFU ANKRD19P (11752326_a_at) / Fold change /veh ANKRD19P (11752326_a_at) / RFU OR2T12 /// OR2T33 /// OR2T8 (11738714_s_at) / Fold change /veh OR2T12 /// OR2T33 /// OR2T8 (11738714_s_at) / RFU VCAN (11748164_a_at) / Fold change /veh VCAN (11748164_a_at) / RFU JSRP1 (11732532_at) / Fold change /veh JSRP1 (11732532_at) / RFU KRTAP10-11 (11738290_x_at) / Fold change /veh KRTAP10-11 (11738290_x_at) / RFU MYO3A (11730013_a_at) / Fold change /veh MYO3A (11730013_a_at) / RFU EBF3 (11725865_a_at) / Fold change /veh EBF3 (11725865_a_at) / RFU CAMK2N1 (11719241_x_at) / Fold change /veh CAMK2N1 (11719241_x_at) / RFU C5orf56 (11738088_a_at) / Fold change /veh C5orf56 (11738088_a_at) / RFU OLFML3 (11715873_a_at) / Fold change /veh OLFML3 (11715873_a_at) / RFU LOC100653217 /// NTM (11731650_a_at) / Fold change /veh LOC100653217 /// NTM (11731650_a_at) / RFU MAPK11 (11762145_a_at) / Fold change /veh MAPK11 (11762145_a_at) / RFU FIZ1 (11724087_x_at) / Fold change /veh FIZ1 (11724087_x_at) / RFU OASL (11726364_x_at) / Fold change /veh OASL (11726364_x_at) / RFU SOX15 (11748057_x_at) / Fold change /veh SOX15 (11748057_x_at) / RFU CD79A (11719716_a_at) / Fold change /veh CD79A (11719716_a_at) / RFU HIST1H1D (11736915_at) / Fold change /veh HIST1H1D (11736915_at) / RFU CASKIN2 (11723855_a_at) / Fold change /veh CASKIN2 (11723855_a_at) / RFU LOC730098 (11760151_x_at) / Fold change /veh LOC730098 (11760151_x_at) / RFU OR4N2 (11742367_at) / Fold change /veh OR4N2 (11742367_at) / RFU PRRT2 (11749266_a_at) / Fold change /veh PRRT2 (11749266_a_at) / RFU SNX32 (11753110_a_at) / Fold change /veh SNX32 (11753110_a_at) / RFU CDHR5 (11726645_a_at) / Fold change /veh CDHR5 (11726645_a_at) / RFU RCAN1 (11760418_a_at) / Fold change /veh RCAN1 (11760418_a_at) / RFU FAM167A (11723789_a_at) / Fold change /veh FAM167A (11723789_a_at) / RFU FAM26E (11764081_at) / Fold change /veh FAM26E (11764081_at) / RFU ISYNA1 (11749810_s_at) / Fold change /veh ISYNA1 (11749810_s_at) / RFU ACY1 (11761880_at) / Fold change /veh ACY1 (11761880_at) / RFU 11764098_at / Fold change /veh 11764098_at / RFU SAMD14 (11745864_x_at) / Fold change /veh SAMD14 (11745864_x_at) / RFU NPB (11741838_a_at) / Fold change /veh NPB (11741838_a_at) / RFU TMPRSS6 (11731388_a_at) / Fold change /veh TMPRSS6 (11731388_a_at) / RFU KRTAP10-2 (11738614_at) / Fold change /veh KRTAP10-2 (11738614_at) / RFU ARHGAP8 /// PRR5-ARHGAP8 (11727945_x_at) / Fold change /veh ARHGAP8 /// PRR5-ARHGAP8 (11727945_x_at) / RFU KRTAP5-7 /// NADSYN1 (11734609_at) / Fold change /veh KRTAP5-7 /// NADSYN1 (11734609_at) / RFU RASL12 (11751679_a_at) / Fold change /veh RASL12 (11751679_a_at) / RFU CDKN2B (11736163_a_at) / Fold change /veh CDKN2B (11736163_a_at) / RFU PRF1 (11729649_at) / Fold change /veh PRF1 (11729649_at) / RFU, ZNF638 /// ZNF638-IT1 / Fold change vs veh, ZNF638 /// ZNF638-IT1 / RFU, PANK3 / Fold change vs veh, PANK3 / RFU, SH3YL1 / Fold change vs veh, SH3YL1 / RFU, ZEB2 / Fold change vs veh, ZEB2 / RFU, NRIP1 / Fold change vs veh, NRIP1 / RFU, PTTG1IP / Fold change vs veh, PTTG1IP / RFU, CAPN2 / Fold change vs veh, CAPN2 / RFU, MED14 / Fold change vs veh, MED14 / RFU, SNORA58 / Fold change vs veh, SNORA58 / RFU, C1orf63 / Fold change vs veh, C1orf63 / RFU, LRRFIP1 / Fold change vs veh, LRRFIP1 / RFU, NDUFAF7 / Fold change vs veh, NDUFAF7 / RFU, SLC12A2 / Fold change vs veh, SLC12A2 / RFU, IBTK / Fold change vs veh, IBTK / RFU, ESF1 / Fold change vs veh, ESF1 / Fold change vs veh, TMEM50B / RFU, TAOK1 / Fold change vs veh, TAOK1 / RFU, ACBD3 / Fold change vs veh, ACBD3 / RFU, TMA16 / Fold change vs veh, TMA16 / RFU, RWDD3 / Fold change vs veh, RWDD3 / RFU, BCAT1 / Fold change vs veh, BCAT1 / RFU, EDEM3 / Fold change vs veh, EDEM3 / RFU, TMEM33 / Fold change vs veh, TMEM33 / RFU, WDR75 / Fold change vs veh, WDR75 / RFU, AHCTF1 / Fold change vs veh, AHCTF1 / RFU, TFRC / Fold change vs veh, TFRC / RFU, ZDHHC17 / Fold change vs veh, ZDHHC17 / RFU, NOM1 / Fold change vs veh, NOM1 / RFU, ARL8B / Fold change vs veh, ARL8B / RFU, ZBTB11 / Fold change vs veh, ZBTB11 / RFU, TAMM41 / Fold change vs veh, TAMM41 / RFU, KIAA1704 /// LOC100996395 / Fold change vs veh, KIAA1704 /// LOC100996395 / RFU, ING1 / Fold change vs veh, ING1 / RFU, TRMT61B / Fold change vs veh, TRMT61B / RFU, FUBP3 / Fold change vs veh, FUBP3 / RFU, TP53 / Fold change vs veh, TP53 / RFU, TNKS2 / Fold change vs veh, TNKS2 / RFU, ZFP14 / Fold change vs veh, ZFP14 / RFU, ACTR2 / Fold change vs veh, ACTR2 / RFU, PPP3R1 / Fold change vs veh, PPP3R1 / RFU, PIK3R1 / Fold change vs veh, PIK3R1 / RFU, HNRNPA1 / Fold change vs veh, HNRNPA1 / RFU, RNF170 / Fold change vs veh, RNF170 / RFU, ZNF28 / Fold change vs veh, ZNF28 / RFU, RNGTT / Fold change vs veh, RNGTT / RFU, OGT / Fold change vs veh, OGT / RFU, BRD1 / Fold change vs veh, BRD1 / RFU, MARS / Fold change vs veh, MARS / RFU, ZNF655 / Fold change vs veh, ZNF655 / RFU, FAHD1 / Fold change vs veh, FAHD1 / RFU, BDP1 / Fold change vs veh, BDP1 / RFU, LRRCC1 / Fold change vs veh, LRRCC1 / RFU, ARID1A / Fold change vs veh, ARID1A / RFU, ZNF146 / Fold change vs veh, ZNF146 / RFU, ZNF330 / Fold change vs veh, ZNF330 / RFU, GPN3 / Fold change vs veh, GPN3 / RFU, C9orf123 / Fold change vs veh, C9orf123 / RFU, N4BP2L2 / Fold change vs veh, N4BP2L2 / RFU, ARFIP1 / Fold change vs veh, ARFIP1 / RFU, FAM179B / Fold change vs veh, FAM179B / RFU, BCL10 / Fold change vs veh, BCL10 / RFU, UHRF1BP1L / Fold change vs veh, UHRF1BP1L / RFU, BET1 / Fold change vs veh, BET1 / RFU, CNOT2 / Fold change vs veh, CNOT2 / RFU, ZNF268 / Fold change vs veh, ZNF268 / Fold change vs veh, ZNF507 / RFU, DGCR2 / Fold change vs veh, DGCR2 / RFU, WDSUB1 / Fold change vs veh, WDSUB1 / Fold change vs veh, HSP90B1 /// MIR3652 / RFU, ADSS / Fold change vs veh, ADSS / RFU, GK / Fold change vs veh, GK / RFU, ZNF148 / Fold change vs veh, ZNF148 / RFU, TAF9 / Fold change vs veh, TAF9 / RFU, SLC1A5 / Fold change vs veh, SLC1A5 / RFU, SLMO2 / Fold change vs veh, SLMO2 / RFU, ABCC4 / Fold change vs veh, ABCC4 / RFU, LOC101060439 /// RAP1B / Fold change vs veh, LOC101060439 /// RAP1B / RFU, RFX7 / Fold change vs veh, RFX7 / RFU, GTPBP10 / Fold change vs veh, GTPBP10 / RFU, CNEP1R1 / Fold change vs veh, CNEP1R1 / RFU, BIVM-ERCC5 /// ERCC5 / Fold change vs veh, BIVM-ERCC5 /// ERCC5 / RFU, ILF3 / Fold change vs veh, ILF3 / RFU 11762660_at / Fold change /veh 11762660_at / RFU VCAN (11757783_s_at) / Fold change /veh VCAN (11757783_s_at) / RFU DDX43 (11728927_at) / Fold change /veh DDX43 (11728927_at) / RFU KRT8 (11758188_x_at) / Fold change /veh KRT8 (11758188_x_at) / RFU NKD1 (11759106_at) / Fold change /veh NKD1 (11759106_at) / RFU SRD5A1 (11742802_a_at) / Fold change /veh SRD5A1 (11742802_a_at) / RFU TPSAB1 /// TPSB2 (11721975_s_at) / Fold change /veh TPSAB1 /// TPSB2 (11721975_s_at) / RFU GSTM3 (11746129_a_at) / Fold change /veh GSTM3 (11746129_a_at) / RFU IL23R (11737362_x_at) / Fold change /veh IL23R (11737362_x_at) / RFU TMEM51 (11727254_a_at) / Fold change /veh TMEM51 (11727254_a_at) / RFU PIWIL2 (11732686_x_at) / Fold change /veh PIWIL2 (11732686_x_at) / RFU ORM1 (11744905_x_at) / Fold change /veh ORM1 (11744905_x_at) / RFU CCDC152 (11743942_at) / Fold change /veh CCDC152 (11743942_at) / RFU ECM1 (11717891_a_at) / Fold change /veh ECM1 (11717891_a_at) / RFU IL23R (11748794_a_at) / Fold change /veh IL23R (11748794_a_at) / RFU TNFAIP8L3 (11732012_x_at) / Fold change /veh TNFAIP8L3 (11732012_x_at) / RFU MBOAT4 (11741988_at) / Fold change /veh MBOAT4 (11741988_at) / RFU 11764193_at / Fold change /veh 11764193_at / RFU TMEM53 (11763286_at) / Fold change /veh TMEM53 (11763286_at) / RFU MAGEB2 (11727129_at) / Fold change /veh MAGEB2 (11727129_at) / RFU TMEM200A (11744735_a_at) / Fold change /veh TMEM200A (11744735_a_at) / RFU CCDC152 (11751479_a_at) / Fold change /veh CCDC152 (11751479_a_at) / RFU FAM211A (11726209_a_at) / Fold change /veh FAM211A (11726209_a_at) / RFU RGS16 (11746705_a_at) / Fold change /veh RGS16 (11746705_a_at) / RFU VCAN (11755009_s_at) / Fold change /veh VCAN (11755009_s_at) / RFU RHOB (11743442_s_at) / Fold change /veh RHOB (11743442_s_at) / RFU RGS16 (11720943_a_at) / Fold change /veh RGS16 (11720943_a_at) / RFU RGS16 (11720944_at) / Fold change /veh RGS16 (11720944_at) / RFU, VPS4B / Fold change vs veh, VPS4B / RFU, CREB1 / Fold change vs veh, CREB1 / RFU, DNAJC13 / Fold change vs veh, DNAJC13 / RFU, GNAQ / Fold change vs veh, GNAQ / RFU, CDK5R1 / Fold change vs veh, CDK5R1 / RFU, ZRANB3 / Fold change vs veh, ZRANB3 / RFU, CUL4A / Fold change vs veh, CUL4A / RFU, CCNY / Fold change vs veh, CCNY / RFU, UFL1 / Fold change vs veh, UFL1 / RFU, COG3 / Fold change vs veh, COG3 / RFU, DIAPH2 / Fold change vs veh, DIAPH2 / RFU, SKA2 / Fold change vs veh, SKA2 / RFU, AFF3 / Fold change vs veh, AFF3 / RFU, LMF1 / Fold change vs veh, LMF1 / RFU, IPO11 / Fold change vs veh, IPO11 / RFU, DFFB / Fold change vs veh, DFFB / RFU, FOXP1 / Fold change vs veh, FOXP1 / RFU, CARD8 / Fold change vs veh, CARD8 / RFU, STRN3 / Fold change vs veh, STRN3 / RFU, ADK / Fold change vs veh, ADK / RFU, RASSF2 / Fold change vs veh, RASSF2 / RFU, WIPF1 / Fold change vs veh, WIPF1 / RFU, LARP1B / Fold change vs veh, LARP1B / RFU, RASA1 / Fold change vs veh, RASA1 / RFU, RB1 / Fold change vs veh, RB1 / RFU, PPFIA1 / Fold change vs veh, PPFIA1 / RFU, MAT2A / Fold change vs veh, MAT2A / RFU, CCT5 / Fold change vs veh, CCT5 / RFU, WDR92 / Fold change vs veh, WDR92 / RFU, CUX1 / Fold change vs veh, CUX1 / RFU, TTC7A / Fold change vs veh, TTC7A / RFU, TMEM135 / Fold change vs veh, TMEM135 / RFU, DEPTOR / Fold change vs veh, DEPTOR / RFU, CPM / Fold change vs veh, CPM / RFU, DNAJB6 / Fold change vs veh, DNAJB6 / RFU, CACNA2D3 / Fold change vs veh, CACNA2D3 / RFU, DTX4 / Fold change vs veh, DTX4 / RFU, TFCP2 / Fold change vs veh, TFCP2 / RFU, GMCL1 /// GMCL1P1 / Fold change vs veh, GMCL1 /// GMCL1P1 / RFU, AEBP2 / Fold change vs veh, AEBP2 / RFU, SNHG1 /// SNORD22 /// SNORD25 /// SNORD26 /// SNORD27 /// SNORD28 /// SNORD29 /// SNORD31 / Fold change vs veh, SNHG1 /// SNORD22 /// SNORD25 /// SNORD26 /// SNORD27 /// SNORD28 /// SNORD29 /// SNORD31 / Fold change (Aza/veh), C12orf56 (ProbeSet 11735607_a_at) / Fold change (ACY-1035/veh), C12orf56 (ProbeSet 11735607_a_at) / Fold change (Aza/veh), FGFR1OP (ProbeSet 11751329_s_at) / Fold change (ACY-1035/veh), FGFR1OP (ProbeSet 11751329_s_at) / Fold change (Aza/veh), VPS36 (ProbeSet 11739960_a_at) / Fold change (ACY-1035/veh), VPS36 (ProbeSet 11739960_a_at) / RFU SYPL1 (11715823_x_at) / Fold change /veh SYPL1 (11715823_x_at) / RFU IGFBP7 (11715501_s_at) / Fold change /veh IGFBP7 (11715501_s_at) / RFU REEP3 (11722064_at) / Fold change /veh REEP3 (11722064_at) / RFU IGLL1 (11728026_x_at) / Fold change /veh IGLL1 (11728026_x_at): dose or concentration left out as unconfirmed
Conditions: MV-4-11 cells, 48 hours

For `Nc1ccc(-c2cccs2)cc1NC(=O)c1ccc2c(c1)cc(C1CC1)n2CCN1CCOCC1` [ACY-1035], the “RFU SAMD14 (11745864_x_at)” value was 19.46 RFU.
